Patent US11382889B2, “NRF2 activators for the prevention and/or treatment of axonal degeneration” (priority 2018, dated 2022)
Where a name gives a salt, the structure may show the parent alone.

Assays:
NRF2 = NRF2 protein levels and NRF2-target gene expression in Abcd1− mice spinal cord after dietary DMF; type: in vivo; settings: 12 months of age, DMF 100 mg/kg/day in chow for 4 months
Description: a) NRF2 protein levels in WT (n=6), Abcd1^− (n=6) and DMF-treated Abcd1^− mice (Abcd1^−+DMF, n=6) mice spinal cord at 12 months of age. Protein levels were normalized relative to γ-TUB and quantification is depicted as fold change to WT (Wild type) mice. b) NRF2-dependent antioxidative genes (Hmox1, Nqo1 and Gst α 3) expression in WT (n=8), Abcd1^− (n=8) and Abcd1^−+DMF (n=8) mice spinal cord at 12 months of age. Gene expression levels were normalized relative to Rplp0. Quantification is represented as fold change to WT mice. c) Mitochondrial DNA (mtDNA) levels in WT (n=8), Abcd1^− (n=8) and Abcd1^−+DMF (n=8) mice spinal cord at 12 months of age. mtDNA content was measured by quantitative RT-PCR and expressed as the ratio of mtDNA (CytB levels) to nuclear DNA (nDNA, Cebpa levels). Quantification is depicted as fold change to WT mice. d) Sirt1, Pgc-1α, Nrf1 and Tfam expression was measured by quantitative RT-PCR in WT (n=8), Abcd1^− (n=8) and Abcd1^−+DMF (n=8) mice spinal cord at 12 months of age. Gene expression levels were normalized relative to Rplp0. Quantification is depicted as fold change to WT mice. e) ATP levels in WT (n=8), Abcd1^− (n=8) and Abcd1^−+DMF (n=8) mice spinal cord at 12 months of age. Quantification is represented as fold change to WT mice. […]

Abcd1− mice spinal cord = test: Mitochondrial depletion and bioenergetic failure in Abcd1− mice spinal cord; type: in vivo; settings: 12 months of age, DMF 100 mg/kg/day in chow for 4 months
Method: b) NRF2-dependent antioxidative genes (Hmox1, Nqo1 and Gst α 3) expression in WT (n=8), Abcd1^− (n=8) and Abcd1^−+DMF (n=8) mice spinal cord at 12 months of age. Gene expression levels were normalized relative to Rplp0. Quantification is represented as fold change to WT mice. c) Mitochondrial DNA (mtDNA) levels in WT (n=8), Abcd1^− (n=8) and Abcd1^−+DMF (n=8) mice spinal cord at 12 months of age. mtDNA content was measured by quantitative RT-PCR and expressed as the ratio of mtDNA (CytB levels) to nuclear DNA (nDNA, Cebpa levels). Quantification is depicted as fold change to WT mice. d) Sirt1, Pgc-1α, Nrf1 and Tfam expression was measured by quantitative RT-PCR in WT (n=8), Abcd1^− (n=8) and Abcd1^−+DMF (n=8) mice spinal cord at 12 months of age. Gene expression levels were normalized relative to Rplp0. Quantification is depicted as fold change to WT mice. e) ATP levels in WT (n=8), Abcd1^− (n=8) and Abcd1^−+DMF (n=8) mice spinal cord at 12 months of age. Quantification is represented as fold change to WT mice. Data are shown as mean±SD (*p<0.05, **p<0.01, ***p<0.001 after one-way ANOVA test followed by Tukey's post-hoc test; #p<0.05 after one-way ANOVA test followed by Dunnett's post-hoc test; p<0.05, p<0.01 after non-parametric Kruskal-Wallis' test).
Cages contained 3 to 5 animals.
We used two X-ALD mouse models in this study. We characterized the biochemical signs of adult X-ALD in Abcd1^− mice at 12 months of age. These mice show biochemical signs of pathology, including oxidative stress and energetic homeostasis impairment, before the first clinical signs of AMN-like pathology (axonopathy and locomotor impairment) appear at 20 months.
For biochemical analysis, we killed the mice and stored the tissues at −80° C. after snap-freezing them in liquid nitrogen. For histological analysis, spinal cord was harvested from 18-month-old mice after perfusing them with 4% paraformaldehyde (PFA; Sigma-Aldrich, Ref. 441244) in 0.1 M phosphate buffer pH 7.4. […]

COC(=O)/C=C/C(=O)OC [DMF, dimethyl fumarate]
NRF2 protein levels (NRF2): induced | NRF2 target genes expression (Hmox1, Nqo1, Gstα3) (NRF2): induced | mitochondrial DNA (mtDNA) levels (Abcd1− mice spinal cord; Abcd1− mouse spinal cord): normalized | mitochondrial biogenesis genes mRNA expression (Sirt1, Pgc-1α, Nrf1, Tfam) (Abcd1− mice spinal cord; Abcd1− mouse spinal cord): normalized | ATP levels (Abcd1− mice spinal cord; X-ALD (Abcd1−) mouse spinal cord): normalized
